# Active and inactive are the calls of the source. The rule behind the calls is not given here.
# Tests used:
# Staphylococcus aureus [1] = assay: Antibacterial activity against Staphylococcus aureus ATCC 6538P by microdilution method; format: functional, organism-based
# Escherichia coli [2] = assay: Antibacterial activity against Escherichia coli NIHJ by microdilution method; format: functional, organism-based
# Pseudomonas aeruginosa [3] = assay: Antibacterial activity against Pseudomonas aeruginosa ATCC 15692 by microdilution method; format: functional, organism-based
# [4] = Displacement of [14C]benzylpenicillin from PBP1 in Staphylococcus aureus ATCC 6538P
# [5] = Displacement of [14C]benzylpenicillin from PBP2 Staphylococcus aureus ATCC 6538P
# [6] = Displacement of [14C]benzylpenicillin from PBP3 in Staphylococcus aureus ATCC 6538P
# [7] = Displacement of [14C]benzylpenicillin from PBP4 in Staphylococcus aureus ATCC 6538P
# [8] = Displacement of [14C]benzylpenicillin from PBP1A in Escherichia coli NIHJ
# [9] = Displacement of [14C]benzylpenicillin from PBP1B in Escherichia coli NIHJ
# [10] = Displacement of [14C]benzylpenicillin from PBP2 in Escherichia coli NIHJ
# [11] = Displacement of [14C]benzylpenicillin from PBP3 in Escherichia coli NIHJ
# [12] = Displacement of [14C]benzylpenicillin from PBP4 in Escherichia coli NIHJ
# [13] = Displacement of [14C]benzylpenicillin from PBP5 in Escherichia coli NIHJ
# [14] = Displacement of [14C]benzylpenicillin from PBP6 Escherichia coli NIHJ
# [15] = Displacement of [14C]benzylpenicillin from PBP1A in Pseudomonas aeruginosa ATCC 15692
# [16] = Displacement of [14C]benzylpenicillin from PBP1B in Pseudomonas aeruginosa ATCC 15692
# [17] = Displacement of [14C]benzylpenicillin from PBP2 in Pseudomonas aeruginosa ATCC 15692
# [18] = Displacement of [14C]benzylpenicillin from PBP3 in Pseudomonas aeruginosa ATCC 15692
# [19] = Displacement of [14C]benzylpenicillin from PBP4 in Pseudomonas aeruginosa ATCC 15692
# [20] = Displacement of [14C]benzylpenicillin from PBP 5 in Pseudomonas aeruginosa ATCC 15692
# [21] = Displacement of [14C]benzylpenicillin from PBP 6 in Pseudomonas aeruginosa ATCC 15692
# Escherichia coli [22] = assay: Antibacterial activity against Escherichia coli NIHJ assessed as appearance of swollen cells at 1/8 times MIC by Scanning electron microscopy; format: functional, organism-based
# Escherichia coli [23] = assay: Antibacterial activity against Escherichia coli NIHJ assessed as appearance of spherical and bulge cells at 8 times MIC by Scanning electron microscopy; format: functional, organism-based
# Pseudomonas aeruginosa [24] = assay: Antibacterial activity against Pseudomonas aeruginosa ATCC 15692 assessed as filamentation of cells at 0.125 times MIC by scanning electron microscopy; format: functional, organism-based
# Pseudomonas aeruginosa [25] = assay: Antibacterial activity against Pseudomonas aeruginosa ATCC 15692 assessed as appearance of bulge cells at MIC by Scanning electron microscopy; format: functional, organism-based
# Staphylococcus aureus [26] = assay: Antibacterial activity against Staphylococcus aureus SRR2a selected at 2 times MIC of tomopenem by microdilution method; format: functional
# Staphylococcus aureus [27] = assay: Ratio of MIC for Staphylococcus aureus SRR2a to MIC for Staphylococcus aureus ATCC 6538P; format: functional
# Staphylococcus aureus [28] = assay: Antibacterial activity against Staphylococcus aureus SIR2a selected at 2 times MIC of imipenem by microdilution method; format: functional
# Staphylococcus aureus [29] = assay: Ratio of MIC for Staphylococcus aureus SIR2a selected at 2 times MIC of imipenem to MIC for Staphylococcus aureus ATCC 6538P; format: functional
# Staphylococcus aureus [30] = assay: Antibacterial activity against Staphylococcus aureus SMR2a selected at 2 times MIC of meropenem by microdilution method; format: functional
# Staphylococcus aureus [31] = assay: Ratio of MIC for Staphylococcus aureus SMR2a to MIC for Staphylococcus aureus ATCC 6538P; format: functional
# Staphylococcus aureus [32] = assay: Antibacterial activity against Staphylococcus aureus SMR4a […] MIC of meropenem by microdilution method; format: functional
# Staphylococcus aureus [33] = assay: Ratio of MIC for Staphylococcus aureus SMR4a to MIC for Staphylococcus aureus ATCC 6538P; format: functional
# Escherichia coli [34] = assay: Antibacterial activity against Escherichia coli ERR2a selected at 2 times MIC of tomopenem by microdilution method; format: functional
# Escherichia coli [35] = assay: Ratio of MIC for Escherichia coli ERR2a selected to MIC for Escherichia coli NIHJ; format: functional
# Escherichia coli [36] = assay: Antibacterial activity against Escherichia coli ERR2b selected at 2 times MIC of tomopenem by microdilution method; format: functional
# Escherichia coli [37] = assay: Ratio of MIC for Escherichia coli ERR2b to MIC for Escherichia coli NIHJ; format: functional
# Escherichia coli [38] = assay: Antibacterial activity against Escherichia coli ERR4a selected at 4 times MIC of tomopenem by microdilution method; format: functional
# Escherichia coli [39] = assay: Ratio of MIC for Escherichia coli ERR4a to MIC for Escherichia coli NIHJ; format: functional
# Escherichia coli [40] = assay: Antibacterial activity against Escherichia coli ERR8a selected at 8 times MIC of tomopenem by microdilution method; format: functional
# Escherichia coli [41] = assay: Ratio of MIC for Escherichia coli ERR8a to MIC for Escherichia coli NIHJ; format: functional
# Escherichia coli [42] = assay: Antibacterial activity against Escherichia coli EIR2a selected at 2 times MIC of imipenem by microdilution method; format: functional
# Escherichia coli [43] = assay: Ratio of MIC for Escherichia coli EIR2a to MIC for Escherichia coli NIHJ; format: functional
# Escherichia coli [44] = assay: Antibacterial activity against Escherichia coli EIR2b selected at 2 times MIC of imipenem by microdilution method; format: functional
# Escherichia coli [45] = assay: Ratio of MIC for Escherichia coli EIR2b to MIC for Escherichia coli NIHJ; format: functional
# Escherichia coli [46] = assay: Antibacterial activity against Escherichia coli EIR4a selected at 4 times MIC of imipenem by microdilution method; format: functional
# Escherichia coli [47] = assay: Ratio of MIC for Escherichia coli EIR4a to MIC for Escherichia coli NIHJ; format: functional
# Escherichia coli [48] = assay: Antibacterial activity against Escherichia coli EIR4b selected at 4 times MIC of imipenem by microdilution method; format: functional
# Escherichia coli [49] = assay: Ratio of MIC for Escherichia coli EIR4b to MIC for Escherichia coli NIHJ; format: functional
# Escherichia coli [50] = assay: Antibacterial activity against Escherichia coli EIR8a selected at 8 times MIC of imipenem by microdilution method; format: functional
# Escherichia coli [51] = assay: Ratio of MIC for Escherichia coli EIR8a to MIC for Escherichia coli NIHJ; format: functional
# Escherichia coli [52] = assay: Antibacterial activity against Escherichia coli EMR2a selected at 2 times MIC of meropenem by microdilution method; format: functional
# Escherichia coli [53] = assay: Ratio of MIC for Escherichia coli EMR2a to MIC for Escherichia coli NIHJ; format: functional
# Pseudomonas aeruginosa [54] = assay: Antibacterial activity against Pseudomonas aeruginosa PRR4a selected at 4 times MIC of tomopenem by microdilution method; format: functional
# Pseudomonas aeruginosa [55] = assay: Ratio of MIC for Pseudomonas aeruginosa PRR4a to MIC for Pseudomonas aeruginosa ATCC 15692; format: functional
# Pseudomonas aeruginosa [56] = assay: Antibacterial activity against Pseudomonas aeruginosa PIR2a selected at 2 times MIC of imipenem by microdilution method; format: functional
# Pseudomonas aeruginosa [57] = assay: Ratio of MIC for Pseudomonas aeruginosa PIR2a to MIC for Pseudomonas aeruginosa ATCC 15692; format: functional
# Pseudomonas aeruginosa [58] = assay: Antibacterial activity against Pseudomonas aeruginosa PMR2a selected at 2 times MIC of meropenem by microdilution method; format: functional
# Pseudomonas aeruginosa [59] = assay: Ratio of MIC for Pseudomonas aeruginosa PMR2a to MIC for Pseudomonas aeruginosa ATCC 15692; format: functional
# Staphylococcus aureus [60] = assay: Antibacterial activity against Staphylococcus aureus ATCC 6538P assessed as fold decrease in compound susceptibility after 10 passages relative to control; format: functional
# Pseudomonas aeruginosa [61] = assay: Antibacterial activity against Pseudomonas aeruginosa ATCC 15692 assessed as fold decrease in compound susceptibility after 10 passages relative to control; format: functional
# Staphylococcus aureus [62] = assay: Antibacterial activity against methicillin-sensitive Staphylococcus aureus by microdilution method; format: functional
# Staphylococcus aureus [63] = assay: Antibacterial activity against methicillin-resistant Staphylococcus aureus by microdilution method; format: functional
compound,measurement,setting,value
C[C@@H](O)[C@H]1C(=O)N2C(C(=O)O)=C(S[C@H]3C[C@@H](C(=O)N4CC[C@H](NC(=O)CNC(=N)N)C4)N(C)C3)[C@H](C)[C@H]12 [TOMOPENEM],IC50,Staphylococcus aureus [1],0.06 µg/mL
same,MBC,Staphylococcus aureus [1],0.06 µg/mL
same,MIC,Staphylococcus aureus [1],0.06 µg/mL
same,MBC,Escherichia coli [2],0.03 µg/mL
same,MIC,Escherichia coli [2],0.03 µg/mL
same,MBC,Pseudomonas aeruginosa [3],0.5 µg/mL
same,MIC,Pseudomonas aeruginosa [3],0.5 µg/mL
same,IC50,[4],0.16 µg/mL
same,IC50,[5],0.21 µg/mL
same,IC50,[6],> 32 µg/mL
same,IC50,[7],0.094 µg/mL
same,IC50,[8],1.2 µg/mL
same,IC50,[9],1.3 µg/mL
same,IC50,[10],0.017 µg/mL
same,IC50,[11],0.71 µg/mL
same,IC50,[12],> 32 µg/mL
same,IC50,[13],5.7 µg/mL
same,IC50,[14],31 µg/mL
same,IC50,[15],0.061 µg/mL
same,IC50,[16],0.053 µg/mL
same,IC50,[17],0.011 µg/mL
same,IC50,[18],0.011 µg/mL
same,IC50,[19],0.0035 µg/mL
same,IC50,[20],5 µg/mL
same,IC50,[21],5 µg/mL
same,Activity,Escherichia coli [22],Active
same,Activity,Escherichia coli [23],Active
same,Activity,Pseudomonas aeruginosa [24],Active
same,Activity,Pseudomonas aeruginosa [25],Active
same,MIC,Staphylococcus aureus [26],0.25 µg/mL
same,Ratio MIC,Staphylococcus aureus [27],4
same,MIC,Staphylococcus aureus [28],0.25 µg/mL
same,Ratio MIC,Staphylococcus aureus [29],4
same,MIC,Staphylococcus aureus [30],0.25 µg/mL
same,Ratio MIC,Staphylococcus aureus [31],4
same,MIC,Staphylococcus aureus [32],0.5 µg/mL
same,ratio,Staphylococcus aureus [33],8
same,MIC,Escherichia coli [34],0.12 µg/mL
same,Ratio MIC,Escherichia coli [35],4
same,MIC,Escherichia coli [36],0.12 µg/mL
same,Ratio MIC,Escherichia coli [37],4
same,MIC,Escherichia coli [38],0.12 µg/mL
same,Ratio MIC,Escherichia coli [39],4
same,MIC,Escherichia coli [40],0.12 µg/mL
same,Ratio MIC,Escherichia coli [41],4
same,MIC,Escherichia coli [42],0.06 µg/mL
same,Ratio MIC,Escherichia coli [43],2
same,MIC,Escherichia coli [44],0.06 µg/mL
same,Ratio MIC,Escherichia coli [45],2
same,MIC,Escherichia coli [46],0.06 µg/mL
same,Ratio MIC,Escherichia coli [47],2
same,MIC,Escherichia coli [48],0.06 µg/mL
same,Ratio MIC,Escherichia coli [49],2
same,MIC,Escherichia coli [50],0.06 µg/mL
same,Ratio MIC,Escherichia coli [51],2
same,MIC,Escherichia coli [52],0.06 µg/mL
same,Ratio MIC,Escherichia coli [53],2
same,MIC,Pseudomonas aeruginosa [54],8 µg/mL
same,Ratio MIC,Pseudomonas aeruginosa [55],32
same,MIC,Pseudomonas aeruginosa [56],2 µg/mL
same,Ratio MIC,Pseudomonas aeruginosa [57],8
same,MIC,Pseudomonas aeruginosa [58],2 µg/mL
same,Ratio MIC,Pseudomonas aeruginosa [59],8
same,fold change (FC),Staphylococcus aureus [60],2
same,fold change (FC),Pseudomonas aeruginosa [61],8
same,MIC50,Staphylococcus aureus [62],0.12 µg/mL
same,MIC90,Staphylococcus aureus [62],0.12 µg/mL
same,MIC50,Staphylococcus aureus [63],4 µg/mL
same,MIC90,Staphylococcus aureus [63],8 µg/mL
